The target in assay [1] is T1, recombinant human ACC1 (rhACC1) (Homo sapiens, UniProt Q13085, DEL44-44).
T1 construct: His6 (N); made in house; host or cells: SF9 insect cells (baculovirus)
Kind of assay: Transcreener ADP detection FP assay, recombinant human ACC1 inhibition. The format is biochemical. To be noted: recombinant human ACC1, 50 μM ATP; read-out: Transcreener Assay hACC1 IC50.

The target in assay [2] is T2, recombinant human ACC2 (rhACC2) (Homo sapiens, UniProt O00763, V2141I).
T2 construct: made in house; host or cells: CHO cells, tetracycline-induced (pcDNA5 FRT TO-TOPO)
T2 sequence (O00763 whole entry V2141I): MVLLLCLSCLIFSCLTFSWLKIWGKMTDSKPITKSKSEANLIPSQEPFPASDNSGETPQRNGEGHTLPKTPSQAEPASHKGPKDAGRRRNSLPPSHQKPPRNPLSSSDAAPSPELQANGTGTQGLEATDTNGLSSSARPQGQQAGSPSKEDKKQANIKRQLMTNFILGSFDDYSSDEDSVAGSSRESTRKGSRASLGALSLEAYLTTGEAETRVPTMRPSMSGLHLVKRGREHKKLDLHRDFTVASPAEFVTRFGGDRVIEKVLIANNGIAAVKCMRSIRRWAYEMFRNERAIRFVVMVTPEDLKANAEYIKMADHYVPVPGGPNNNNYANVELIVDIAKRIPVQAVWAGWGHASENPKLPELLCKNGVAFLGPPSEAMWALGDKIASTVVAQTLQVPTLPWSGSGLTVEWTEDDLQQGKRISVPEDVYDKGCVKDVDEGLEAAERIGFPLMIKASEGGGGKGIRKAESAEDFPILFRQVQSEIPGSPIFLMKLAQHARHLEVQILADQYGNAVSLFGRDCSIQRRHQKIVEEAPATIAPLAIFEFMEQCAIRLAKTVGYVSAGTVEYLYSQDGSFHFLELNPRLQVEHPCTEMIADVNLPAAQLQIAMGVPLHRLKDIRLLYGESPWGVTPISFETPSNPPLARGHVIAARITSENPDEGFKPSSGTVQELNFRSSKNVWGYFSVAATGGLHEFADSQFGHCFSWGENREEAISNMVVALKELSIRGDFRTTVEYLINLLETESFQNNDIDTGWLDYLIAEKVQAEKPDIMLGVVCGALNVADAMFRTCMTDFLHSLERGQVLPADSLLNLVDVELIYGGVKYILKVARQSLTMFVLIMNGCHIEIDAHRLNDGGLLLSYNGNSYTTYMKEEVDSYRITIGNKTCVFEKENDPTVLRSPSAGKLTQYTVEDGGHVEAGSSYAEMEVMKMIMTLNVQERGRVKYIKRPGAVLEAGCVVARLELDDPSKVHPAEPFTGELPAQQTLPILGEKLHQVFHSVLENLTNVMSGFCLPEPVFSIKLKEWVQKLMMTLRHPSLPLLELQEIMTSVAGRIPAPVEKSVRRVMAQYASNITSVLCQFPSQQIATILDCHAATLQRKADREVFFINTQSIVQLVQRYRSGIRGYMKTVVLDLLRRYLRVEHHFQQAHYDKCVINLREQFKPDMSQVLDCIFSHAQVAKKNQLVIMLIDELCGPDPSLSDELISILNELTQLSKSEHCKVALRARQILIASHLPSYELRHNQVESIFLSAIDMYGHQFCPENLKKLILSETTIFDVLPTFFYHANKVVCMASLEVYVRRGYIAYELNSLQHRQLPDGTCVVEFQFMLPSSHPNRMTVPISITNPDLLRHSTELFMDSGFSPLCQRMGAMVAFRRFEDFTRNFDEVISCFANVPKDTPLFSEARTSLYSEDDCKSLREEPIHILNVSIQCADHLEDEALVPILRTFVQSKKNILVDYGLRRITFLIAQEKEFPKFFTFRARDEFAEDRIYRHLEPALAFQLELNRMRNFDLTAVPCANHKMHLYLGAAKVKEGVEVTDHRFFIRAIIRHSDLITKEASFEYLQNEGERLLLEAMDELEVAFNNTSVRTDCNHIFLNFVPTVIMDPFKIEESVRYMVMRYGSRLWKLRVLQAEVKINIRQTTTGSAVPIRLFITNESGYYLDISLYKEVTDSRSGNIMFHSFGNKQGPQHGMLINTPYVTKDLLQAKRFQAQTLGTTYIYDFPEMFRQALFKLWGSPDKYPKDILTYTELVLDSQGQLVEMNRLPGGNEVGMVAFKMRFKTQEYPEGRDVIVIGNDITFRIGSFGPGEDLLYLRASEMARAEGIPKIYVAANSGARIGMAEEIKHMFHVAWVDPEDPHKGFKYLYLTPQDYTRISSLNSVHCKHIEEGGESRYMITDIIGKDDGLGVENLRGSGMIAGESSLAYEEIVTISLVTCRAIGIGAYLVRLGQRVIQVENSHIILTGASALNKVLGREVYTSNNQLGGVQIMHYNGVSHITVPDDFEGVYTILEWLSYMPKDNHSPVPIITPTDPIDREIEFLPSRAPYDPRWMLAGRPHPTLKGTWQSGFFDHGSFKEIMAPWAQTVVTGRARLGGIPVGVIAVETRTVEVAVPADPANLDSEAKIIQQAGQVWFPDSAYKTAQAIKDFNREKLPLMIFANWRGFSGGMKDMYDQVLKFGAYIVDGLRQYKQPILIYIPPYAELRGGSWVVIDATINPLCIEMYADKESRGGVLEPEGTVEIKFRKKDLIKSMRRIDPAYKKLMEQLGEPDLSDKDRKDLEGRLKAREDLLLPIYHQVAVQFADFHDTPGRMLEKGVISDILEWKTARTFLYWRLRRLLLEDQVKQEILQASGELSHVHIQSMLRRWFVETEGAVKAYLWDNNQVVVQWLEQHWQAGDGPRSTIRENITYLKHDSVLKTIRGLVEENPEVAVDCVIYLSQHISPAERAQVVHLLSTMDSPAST
The experiment in a line: Transcreener ADP detection FP assay, recombinant human ACC2 inhibition. The format is biochemical. To be noted: recombinant human ACC2, 50 μM ATP; read-out: Transcreener Assay hACC2 IC50.

The target in the next assay is hACC1 (Homo sapiens, UniProt Q13085). Kind of assay: Radiometric ACC1 inhibition assay. It is filed as biochemical.
Another assay concerns the target hACC2 (Homo sapiens, UniProt O00763). The experiment in a line: Radiometric ACC2 inhibition assay. It is filed as biochemical.
Assay [3] relates to SZ95 human sebocyte cells. Kind of assay: Inhibition of de novo lipogenesis (14C-acetate incorporation) in cultured human sebocytes. The format is cell-based. To be noted: Homo sapiens, SZ95 sebocytes, 14C-acetate incorporation into lipids relative to vehicle; read-out: C9302E Sebocyte IC50. As to the method:
SZ95 sebocytes were grown in Human Sebocyte Growth Medium (HSGM) (Sebomed® medium (Biochrom: F8205) supplemented with 10% heat-inactivated fetal bovine serum, 1% penicillin/streptomycin, 1 mM calcium chloride and 5 ng/mL recombinant human epidermal growth factor (Life Tech: PHG0311)). At 90% confluence, cells were washed three times with PBS and then detached with 0.05% Trypsin-EDTA. Cells were centrifuged and resuspended in HSGM containing 10% charcoal-stripped serum (Life Tech: 12676-029). Cells were then plated in 24-well plates at a density of 0.25×10^6 cells/well and were incubated overnight to enable cell adherence to the culture plate.
Cells were treated with a dose response of compound, and each dose was assayed in triplicate. Briefly, compounds were dissolved in DMSO stocks and diluted 1:1000 into charcoal-stripped media. 0.1% DMSO without compound was used as the vehicle control. After a 1 hour preincubation with compound or vehicle, 0.25 μCi ^14C-acetic acid (American Radiolabeled Chemicals: ARC0158B) was added to each well. Plates were then incubated for an additional two hours. At the end of the incubation period, cells were removed from incubator, placed on ice, and then washed twice with ice-cold PBS to remove free ^14C-acetic acid. Plates were sealed and stored at −20° C. until analysis.
Plates were shaken for 1 hour at room temperature to induce lysis. Lysates were transferred to individual 1.5 mL polypropylene tubes, and wells were washed with 175 μl of PBS, which was added to lysates. 450 μl of a 1:1 (v/v) chloroform:methanol solution was then added to each tube, and then all tubes were vortexed for 10 seconds and centrifuged at 20,000×g for 5 minutes at room temperature to separate aqueous from organic phase. A 25 μl aliquot was removed from the bottom organic layer of each sample and added to 6 mL OptiPhase supermix (PerkinElmer: 1200-439) scintillation fluid. Counts of ^14C incorporated into lipids were assessed by scintillation counting. DNL (counts of ^14C incorporated into lipids) was expressed for compound treated cells relative to DNL in the vehicle control treated cells for determination of EC50 values. For a subset of the compounds tested, a second aliquot (3×35 μl) of the organic layer of each sample was removed and applied to a TLC lane (Analtech Silica Gel G Plates). Radiolabeled lipids were resolved using a 2-solvent system. Solvent 1 contained a 100:100:100:40:36 mixture of ethyl acetate:isopropyl alcohol:CHCl3:MeOH:0.25% KCl and solvent 2 a 70:27:3 hexane:diethyl ether:acetic acid mix. The TLC plate was dried under nitrogen for 30 minutes and [^14C]-calibrators added to a vacant lane. Bands were visualized and quantitated using a Molecular Dynamics' Storm 860 Phosphorimager system following 18-36 hours exposure to a Phosphorimager screen.

For assay [4], the system named is de novo lipogenesis in ear skin and liver. The experiment in a line: Effect of oral and topical ACCi on DNL (14C-acetate incorporation) in Syrian hamsters. The format is in vivo, Syrian hamster. To be noted: oral 100 mg/kg single dose, vs. vehicle. As to the method: Male Syrian gold Hamster at ˜10 weeks were maintained adlibitum on standard hamster chow and water. […] Example 3 for topical delivery was prepared as a solution in a vehicle consisting of 70:30 (Ethanol:propylene glycol) at a concentration of 100 mg/ml. Topical administration of a single dose (5 ul/ear) was applied to hamster ears with a pipette (2-10 ul) tip adhering to 2 minute intervals following the dosing order. The dosing timing allowed for the formulation to spread evenly over an approximate 1 sq cm area and absorb/dry prior to returning the animal to the cage. 1 hour post ACCi dose each animal received an IP injection of ^14C-labeled acetate (ARC0158B diluted in saline) following the 2 minute interval timing format. Each animal received an individually calculated amount of ^14C-acetate based on body weight (0.1 μCi/g in a dosing volume of 2 μl/g). One hour after the ^14C-Acetate injection animals were sacrificed by CO2 asphyxiation.
Liver and ear skin were collected for de novo lipogenesis determinations (^14C incorporation to lipid). Briefly, 2 liver punches totaling ˜400 mg of liver were collected from the bifurcated median lobe of each animal (using a 8 mm diameter Sklar Tru-punch—Sklar Instruments), rinsed with saline and blotted dry. The tissues were placed into pre-weighed in glass tubes (Pyrex 9826-16×125 mm with PTFE lined caps) containing NaOH (1.5 mL of 2.5 M).
Ear skin samples were prepared for analysis in the following manner. One 8 mm distal biopsy punch (using an 8 mm diameter Sklar Tru-punch—Sklar Instruments) (2 per animal) was taken just above the anatomical “V” in the aural cartilage to standardize sample collection area. The punch was then split into 2 layers (anterior and posterior). The anterior (front) surface is retained for analysis. The anterior skin was placed into pre-weighed in glass tubes (Pyrex 9826-16×125 mm with PTFE lined caps) containing NaOH (1.5 mL of 2.5 M).
Upon completion of the study, the liver and ear skin samples in NaOH were weighed and this weight was used to calculate the mass of the tissue collected. The capped tubes were heated in an dry oven (˜60° C.) until the tissue was fully degraded (˜4-6 hr, gentle vortexing 2-3 times during heating). Following degradation and cooling absolute ethanol (2.5 mL) was added to each sample. The tubes were recapped and vigorously mixed (vortexed) for 60 seconds and allowed to settle overnight at RT. Petroleum ether (4.8 mL) was added to each tube, recapped and the samples were vigorous mixed (60 sec). […] Aquasol-2 scintillation fluid (10 mL) (or other compatible scintillation fluid) was added to each vial and after vortexing the samples were counted in an appropriate scintillation counter (e g. Wallac Rack-Beta 1409 LSC). […]

The subject of assay [5] is ear skin triglyceride levels. Kind of assay: Hamster ear triglyceride content after chronic treatment. It is filed as in vivo, Syrian hamster. To be noted: oral 30 mg/kg once daily for 19 days. The method, then:
Male Syrian gold hamsters weighing between 150-200 g (22-23 weeks) were maintained adlibitum on standard hamster chow and on a 12 hour light and dark cycle. […] At the end of the study period, animals were euthanized by CO2 asphyxiation. Hamster pinia (ear) were removed by punch biopsy (using an 8 mm diameter Sklar Tru-punch—Sklar Instruments). Punch biopsies were taken just above the anatomical “V” in the aural cartilage of each ear to standardize sample collection area. The punch was then split into 2 layers (anterior and posterior). The anterior (front) surface was retained for analysis. For liver samples the bifurcated medial lobe was removed, rinsed in saline and drained of blood by placing the cut end of the lobe on a sterile absorbent paper and using capillary action. The liver lobe was then flash frozen in liquid nitrogen. Two Qiagen 3 mm Tungsten beads were added to tubes containing individual anterior biopsies of hamster ear skin along with 500 ul of homogenization buffer (methanol:water 1:1 v/v). […] Ear skin triglyceride content was determined via LC-MS on the AB SCIEX Qtrap 5500. […] Lipid extracts were then analyzed by UPLC-MS/MS using a Waters Acquity UPLC coupled to an AB Sciex QTRAP 5500 mass spectrometer. […] Lipid species were then analyzed on the mass spectrometer using positive ion electrospray ionization in the multiple reaction monitoring (MRM) mode. […]

Chain of hACC2 (O00763 whole entry): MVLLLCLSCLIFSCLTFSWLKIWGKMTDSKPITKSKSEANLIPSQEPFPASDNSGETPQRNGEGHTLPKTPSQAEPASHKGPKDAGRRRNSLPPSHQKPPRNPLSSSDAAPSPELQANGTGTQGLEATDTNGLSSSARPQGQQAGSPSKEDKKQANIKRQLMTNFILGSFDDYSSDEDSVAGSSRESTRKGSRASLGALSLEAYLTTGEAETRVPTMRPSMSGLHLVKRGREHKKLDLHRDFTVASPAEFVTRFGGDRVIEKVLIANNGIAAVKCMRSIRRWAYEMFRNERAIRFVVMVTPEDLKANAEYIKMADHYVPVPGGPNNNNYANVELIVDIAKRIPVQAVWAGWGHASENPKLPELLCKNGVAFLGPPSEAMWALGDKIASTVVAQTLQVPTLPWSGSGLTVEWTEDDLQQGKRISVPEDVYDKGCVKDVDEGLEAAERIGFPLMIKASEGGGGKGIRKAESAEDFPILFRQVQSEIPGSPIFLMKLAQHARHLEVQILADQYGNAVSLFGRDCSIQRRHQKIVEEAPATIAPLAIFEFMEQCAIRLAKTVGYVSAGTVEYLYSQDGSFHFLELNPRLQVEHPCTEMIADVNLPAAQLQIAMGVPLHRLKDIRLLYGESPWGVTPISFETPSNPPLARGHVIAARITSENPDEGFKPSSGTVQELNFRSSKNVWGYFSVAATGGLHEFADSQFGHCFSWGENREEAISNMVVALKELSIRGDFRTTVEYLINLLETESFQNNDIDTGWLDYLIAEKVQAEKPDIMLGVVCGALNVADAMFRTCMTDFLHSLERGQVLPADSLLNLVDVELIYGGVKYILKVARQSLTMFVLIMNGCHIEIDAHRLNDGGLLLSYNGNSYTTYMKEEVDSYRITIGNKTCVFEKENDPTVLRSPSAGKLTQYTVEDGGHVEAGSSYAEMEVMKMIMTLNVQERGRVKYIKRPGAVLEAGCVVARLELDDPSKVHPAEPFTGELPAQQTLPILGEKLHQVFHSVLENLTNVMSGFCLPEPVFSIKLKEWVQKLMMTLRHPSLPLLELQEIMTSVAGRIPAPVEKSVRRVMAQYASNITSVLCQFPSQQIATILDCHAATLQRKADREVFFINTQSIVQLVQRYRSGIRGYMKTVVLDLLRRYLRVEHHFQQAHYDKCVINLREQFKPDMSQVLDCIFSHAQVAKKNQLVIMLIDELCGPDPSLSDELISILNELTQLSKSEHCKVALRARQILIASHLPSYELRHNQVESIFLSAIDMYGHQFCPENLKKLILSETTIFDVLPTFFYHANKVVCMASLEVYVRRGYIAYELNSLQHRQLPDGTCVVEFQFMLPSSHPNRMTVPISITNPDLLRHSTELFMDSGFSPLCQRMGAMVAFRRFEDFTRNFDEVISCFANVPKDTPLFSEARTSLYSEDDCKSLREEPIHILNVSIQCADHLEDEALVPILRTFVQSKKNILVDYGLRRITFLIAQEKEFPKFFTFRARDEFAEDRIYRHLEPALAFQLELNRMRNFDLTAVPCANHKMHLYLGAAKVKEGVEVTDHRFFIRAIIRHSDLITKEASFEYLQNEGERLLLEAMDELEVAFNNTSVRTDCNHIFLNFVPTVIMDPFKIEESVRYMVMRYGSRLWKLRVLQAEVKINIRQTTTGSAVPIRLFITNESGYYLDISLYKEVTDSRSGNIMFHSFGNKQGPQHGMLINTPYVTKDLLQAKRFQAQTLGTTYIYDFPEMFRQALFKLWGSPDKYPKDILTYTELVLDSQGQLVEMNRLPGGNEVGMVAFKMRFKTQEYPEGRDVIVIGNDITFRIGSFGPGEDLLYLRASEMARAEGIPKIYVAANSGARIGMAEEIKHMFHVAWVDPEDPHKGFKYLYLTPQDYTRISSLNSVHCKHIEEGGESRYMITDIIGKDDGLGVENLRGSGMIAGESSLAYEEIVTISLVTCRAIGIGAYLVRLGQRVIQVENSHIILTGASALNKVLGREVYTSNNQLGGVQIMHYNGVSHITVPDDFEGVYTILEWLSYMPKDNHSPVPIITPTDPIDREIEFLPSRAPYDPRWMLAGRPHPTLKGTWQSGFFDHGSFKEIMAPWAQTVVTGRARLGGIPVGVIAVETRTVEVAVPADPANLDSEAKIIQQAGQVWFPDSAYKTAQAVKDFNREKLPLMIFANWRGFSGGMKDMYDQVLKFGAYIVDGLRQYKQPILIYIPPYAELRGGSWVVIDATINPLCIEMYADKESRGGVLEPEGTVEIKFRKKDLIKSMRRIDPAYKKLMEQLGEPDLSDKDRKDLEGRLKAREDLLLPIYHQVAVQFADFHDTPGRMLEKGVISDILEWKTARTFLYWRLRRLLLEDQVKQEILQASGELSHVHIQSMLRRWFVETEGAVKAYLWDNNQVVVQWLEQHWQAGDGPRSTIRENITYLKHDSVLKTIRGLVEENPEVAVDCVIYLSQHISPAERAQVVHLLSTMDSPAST

On to `CCOc1cc(C(=O)N2CCC3(CC2)CC(=O)c2cc(-c4cncc(C(N)=O)c4)ccc2O3)cc(OCC)c1-c1cccc(C(=O)O)c1` [Example 14, 4′-(6-(5-carbamoylpyridin-3-yl)-4-oxospiro[chromane-2,4′-piperidine]-1′-carbonyl)-2′,6′-diethoxy-[1,1′-biphenyl]-3-carboxylic acid], for which the IC50 came out at 12 nM in assay [1]; 8 nM in assay [2]; 23 nM against hACC1; 5 nM against hACC2; 8930 nM in assay [3].
Take `CC(C)(C)n1cc2c(n1)C(=O)CC1(CCN(C(=O)c3ccc4[nH]ncc4c3)CC1)O2` [Example 8, 2′-(tert-butyl)-1-(1H-indazole-5-carbonyl)-2′H-spiro[piperidine-4,5′-pyrano[3,2-c]pyrazol]-7′(6′H)-one]: in assay [4], the “suppression of incorporation of de novo synthesized fatty acids in liver” value was 85% and the “suppression of incorporation of de novo synthesized fatty acids in skin” value was determined as 84%. The “ear skin triglyceride levels vs. vehicle” value in assay [5] is “No changes”. For the same compound, in assay [3], the IC50 is 549 nM.

The record behind these values is US20160220557A1, “USE OF ACETYL-COA CARBOXYLASE INHIBITORS FOR TREATING ACNE VULGARIS” (PFIZER INC., priority 2013, published 2016).
